Measured values taken from US20020026053A1, “Novel 3-(substituted) -2- indolinones compounds and use thereof as inhibitors of protein kinase activity” (priority 1997, published 2002).

Target: T1, Met receptor (EGFR/Met chimeric cells, EMR) (Homo sapiens, UniProt P08581)
T1 construct: expressed in transfected cells; the other entry of the earlier key: EGFR (P00533, Epidermal growth factor receptor)
Assay: Met Autophosphorylation Assay
Assay type: biochemical
Details: protocol P.130
Outline: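 Transiently transfected EGFR/Met chimeric (EMR) cells were lysed in HNTG with 1 mM PMSF. Met was captured on plates coated with goat anti-rabbit IgG, then rabbit anti-Met (C-28), using 90 μg lysate/100 μl for 60 min at room temperature. Phosphotyrosine was read by ELISA.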

T1 sequence (P08581 with tags, fused parts or gaps): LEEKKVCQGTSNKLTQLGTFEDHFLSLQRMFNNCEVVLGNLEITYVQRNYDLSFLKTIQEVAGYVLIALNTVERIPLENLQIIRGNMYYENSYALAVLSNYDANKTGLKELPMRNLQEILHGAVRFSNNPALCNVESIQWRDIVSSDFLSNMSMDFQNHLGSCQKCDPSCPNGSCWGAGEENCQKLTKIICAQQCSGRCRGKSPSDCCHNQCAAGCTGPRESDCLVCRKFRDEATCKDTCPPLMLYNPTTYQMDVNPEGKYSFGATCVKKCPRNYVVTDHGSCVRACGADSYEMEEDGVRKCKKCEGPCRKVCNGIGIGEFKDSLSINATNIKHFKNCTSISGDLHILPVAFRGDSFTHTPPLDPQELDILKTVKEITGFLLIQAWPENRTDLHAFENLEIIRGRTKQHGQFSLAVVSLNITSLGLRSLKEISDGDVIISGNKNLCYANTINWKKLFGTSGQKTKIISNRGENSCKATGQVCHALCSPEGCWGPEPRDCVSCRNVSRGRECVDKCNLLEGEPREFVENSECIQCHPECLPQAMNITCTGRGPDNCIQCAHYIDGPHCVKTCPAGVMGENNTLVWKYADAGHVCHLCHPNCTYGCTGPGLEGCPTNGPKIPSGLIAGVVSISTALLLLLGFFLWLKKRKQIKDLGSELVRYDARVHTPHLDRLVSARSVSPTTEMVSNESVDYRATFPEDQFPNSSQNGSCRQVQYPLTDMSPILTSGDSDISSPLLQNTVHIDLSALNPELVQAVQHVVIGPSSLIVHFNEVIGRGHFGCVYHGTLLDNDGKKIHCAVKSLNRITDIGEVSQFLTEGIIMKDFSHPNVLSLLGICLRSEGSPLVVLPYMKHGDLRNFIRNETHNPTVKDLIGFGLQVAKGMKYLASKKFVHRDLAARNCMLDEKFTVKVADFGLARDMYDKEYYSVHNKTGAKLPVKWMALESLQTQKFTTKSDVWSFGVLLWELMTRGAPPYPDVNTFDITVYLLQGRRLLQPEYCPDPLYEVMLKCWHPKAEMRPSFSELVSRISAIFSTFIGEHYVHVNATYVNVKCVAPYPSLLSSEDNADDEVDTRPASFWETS

| SMILES | Met Kinase % Inhibition (P.130) [%] |
| --- | --- |
| CN(C)CCCOc1ccc(C=C2C(=O)Nc3ccc(CCCl)cc32)cc1 [10739/G09] | 46.1 |
| O=C1Nc2ccc(CCCl)cc2C1=Cc1ccoc1 [10739/G10] | 36.5 |
| O=C1Nc2ccc(CCCl)cc2C1=Cc1ccc(CO)o1 [10739/G11] | 56.7 |
| COc1ccc(C=C2C(=O)Nc3c(Br)cc(Br)c(C)c32)cc1C [10739/H02] | 26.6 |
| Cc1c(Br)cc(Br)c2c1C(=Cc1cccc(OCc3ccccc3)c1)C(=O)N2 [10739/H03] | 10.4 |
| Cc1c(Br)cc(Br)c2c1C(=Cc1ccc(OCc3ccccc3)cc1)C(=O)N2 [10739/H04] | −2.7 |
| Cc1c(Br)cc(Br)c2c1C(=Cc1ccc(O)cc1Cl)C(=O)N2 [10739/H06] | 42.2 |
| Cc1c(Br)cc(Br)c2c1C(=Cc1cc(O)c(O)c(O)c1)C(=O)N2 [10739/H07] | 93.7 |
| COc1ccc(Oc2cccc(C=C3C(=O)Nc4c(Br)cc(Br)c(C)c43)c2)cc1 [10739/H08] | 22.9 |
| Cc1c(Br)cc(Br)c2c1C(=Cc1ccoc1)C(=O)N2 [10739/H10] | 62.4 |
